Data on 22 compounds can be found in PubChem BioAssay AID330 (DTP/NCI, 2004).

The test system of the experiment is P388 leukemia ip, CD2F1 mice, survival T/C. In words: NCI In Vivo Anticancer Drug Screen. Data for tumor model P388 Leukemia (intraperitoneal) in CD2F1 (CDF1) mice. Particulars: endpoint: median survival time, higher = longer survival. The gist of the method: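 Mice carrying the transplanted tumor received test compound or vehicle. Survival was recorded in each group, and the value is the treated-group measurement divided by that of the vehicle-treated control group.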

The mark [1] stands for this setting: dose: 50.0 mg/kg/injection, schedule: Q01DX005 (ip), vehicle: saline with Tween-80.
Where [2] appears, read: dose: 100.0 mg/kg/injection, schedule: Q01DX005 (ip), vehicle: saline with Tween-80.
The mark [3] stands for this setting: dose: 200.0 mg/kg/injection, schedule: Q01DX005 (ip), vehicle: saline with Tween-80.
Setting [4] is: dose: 100.0 mg/kg/injection, schedule: Q04DX002 (ip), vehicle: saline.
Where [5] appears, read: dose: 200.0 mg/kg/injection, schedule: Q04DX002 (ip), vehicle: saline.
[6] abbreviates: dose: 400.0 mg/kg/injection, schedule: Q04DX002 (ip), vehicle: saline.
The mark [7] stands for this setting: dose: 50.0 mg/kg/injection, schedule: Q01DX009 (ip), vehicle: saline with Tween-80.
[8] abbreviates: dose: 12.5 mg/kg/injection, schedule: Q01DX009 (ip), vehicle: saline with Tween-80.
The mark [9] stands for this setting: dose: 50.0 mg/kg/injection, schedule: Q01DX009 (ip), vehicle: Klucel (hydroxypropylcellulose) (HPC).
The mark [10] stands for this setting: dose: 100.0 mg/kg/injection, schedule: Q01DX009 (ip), vehicle: Klucel (hydroxypropylcellulose) (HPC).
The mark [11] stands for this setting: dose: 200.0 mg/kg/injection, schedule: Q01DX009 (ip), vehicle: Klucel (hydroxypropylcellulose) (HPC).
The mark [12] stands for this setting: dose: 12.5 mg/kg/injection, schedule: Q01DX009 (ip), vehicle: Klucel (hydroxypropylcellulose) (HPC).
The mark [13] stands for this setting: dose: 25.0 mg/kg/injection, schedule: Q01DX009 (ip), vehicle: Klucel (hydroxypropylcellulose) (HPC).
[14] abbreviates: dose: 60.0 mg/kg/injection, schedule: Q01DX005 (ip), vehicle: Klucel (hydroxypropylcellulose) (HPC).
Where [15] appears, read: dose: 120.0 mg/kg/injection, schedule: Q01DX005 (ip), vehicle: Klucel (hydroxypropylcellulose) (HPC).
Setting [16] is: dose: 240.0 mg/kg/injection, schedule: Q01DX005 (ip), vehicle: Klucel (hydroxypropylcellulose) (HPC).

Where “and” joins values, the source holds several entries; their conditions need not be identical. Equal values may be shown once. Inconclusive results and toxic doses are left out.

With `COc1ccc(CC2c3cc(OC)c(OC)cc3C=CN2C)cc1OC` (stereo not given), the T/C is 99 % of control (dose: 12.5 mg/kg/injection, schedule: Q01DX005 (ip), vehicle: Klucel (hydroxypropylcellulose) (HPC)); 103 % of control (dose: 25.0 mg/kg/injection, schedule: Q01DX005 (ip), vehicle: Klucel (hydroxypropylcellulose) (HPC)); 96 % of control (dose: 50.0 mg/kg/injection, schedule: Q01DX005 (ip), vehicle: Klucel (hydroxypropylcellulose) (HPC)).
Take `O=S(=O)(O)O.[NH-]CC[NH-].[Pt+2]`: the T/C is, setting by setting: (dose: 6.25 mg/kg/injection, schedule: Q04DX002 (ip), vehicle: saline) 168 % of control; (dose: 12.5 mg/kg/injection, schedule: Q04DX002 (ip), vehicle: saline) 97 % of control.
As for `c1ccc2c3c(cc(CNCCNCc4cc5c(c6ccccc46)CCCC5)c2c1)CCCC3`, the T/C was 87 % of control under setting [1], 96 % of control under setting [2] and 110 % of control under setting [3].
`Cc1cccc(C2(C)C(=O)c3ccccc3C2=O)c1`: the T/C was 100 % of control under setting [4], 105 % of control under setting [5] and 102 % of control under setting [6].
`O=C(O)c1nn(Cc2ccc(Cl)cc2)c2ccccc12`: the T/C is, setting by setting: under setting [7], 109 % of control; (dose: 100.0 mg/kg/injection, schedule: Q01DX009 (ip), vehicle: saline with Tween-80) 103 % of control; (dose: 200.0 mg/kg/injection, schedule: Q01DX009 (ip), vehicle: saline with Tween-80) 110 % of control.
Regarding `ClCC#CCCl`, the T/C reads like this: (dose: 6.25 mg/kg/injection, schedule: Q01DX009 (ip), vehicle: saline with Tween-80) 102 % of control; under setting [8], 99 % of control.
Regarding `COc1ccc(/C(N)=N/OCc2ccc(C#N)cc2)cc1`, the T/C by setting is: under setting [9], 96 % of control; under setting [10], 93 % of control; under setting [11], 95 % of control.
As to `CC/C(=C(\c1ccccc1)c1ccc(OCCN(C)C)cc1)c1ccccc1`, the T/C is, setting by setting: (dose: 0.78 mg/kg/injection, schedule: Q01DX009 (ip), vehicle: suspension in saline) 94 % of control; (dose: 1.56 mg/kg/injection, schedule: Q01DX009 (ip), vehicle: suspension in saline) 94 % of control; (dose: 3.12 mg/kg/injection, schedule: Q01DX009 (ip), vehicle: suspension in saline) 94 % of control; (dose: 6.25 mg/kg/injection, schedule: Q01DX009 (ip), vehicle: suspension in saline) 98 % of control; under setting [12], 105 % of control; (dose: 12.5 mg/kg/injection, schedule: Q01DX009 (ip), vehicle: suspension in saline) 100 % of control. The T/C under setting [13] was 102 % of control; the T/C (dose: 25.0 mg/kg/injection, schedule: Q01DX009 (ip), vehicle: suspension in saline) was 104 % of control; the T/C (dose: 50.0 mg/kg/injection, schedule: Q01DX004 (ip), vehicle: saline with Tween-80) is 92 % of control; the T/C under setting [9] was 110 % of control; the T/C (dose: 50.0 mg/kg/injection, schedule: Q01DX009 (ip), vehicle: suspension in saline) is 101 % of control; the T/C (dose: 100.0 mg/kg/injection, schedule: Q01DX004 (ip), vehicle: saline with Tween-80) is 82 % of control. Also, the T/C by setting is: under setting [10], 117 % of control; (dose: 100.0 mg/kg/injection, schedule: Q01DX009 (ip), vehicle: suspension in saline) 92 % of control.
Take `O=c1oc2ccc(Br)cc2cc1-n1nnc2ccccc21`: the T/C (dose: 15.0 mg/kg/injection, schedule: Q01DX005 (ip), vehicle: saline with Tween-80) was 88 % of control; the T/C (dose: 30.0 mg/kg/injection, schedule: Q01DX005 (ip), vehicle: saline with Tween-80) is 93 % of control; the T/C (dose: 60.0 mg/kg/injection, schedule: Q01DX005 (ip), vehicle: saline with Tween-80) was 88 % of control and 90 % of control; the T/C (dose: 120.0 mg/kg/injection, schedule: Q01DX005 (ip), vehicle: saline with Tween-80) is 86 % of control and 97 % of control; the T/C (dose: 240.0 mg/kg/injection, schedule: Q01DX005 (ip), vehicle: saline with Tween-80) was 97 % of control.
As to `O=NN(CCCl)C(=O)NC1CC2CCC1C2` (stereo not given), the T/C runs as follows: under setting [8], 195 % of control; (dose: 25.0 mg/kg/injection, schedule: Q01DX009 (ip), vehicle: saline with Tween-80) 250 % of control; (dose: 25.0 mg/kg/injection, schedule: Q04DX003 (ip), vehicle: saline with Tween-80) 225 % of control; (dose: 33.0 mg/kg/injection, schedule: Q04DX003 (ip), vehicle: saline with Tween-80) 213 % of control; under setting [7], 109 % of control; (dose: 50.0 mg/kg/injection, schedule: Q04DX003 (ip), vehicle: saline with Tween-80) 204 % of control and 295 % of control. Further, the T/C (dose: 75.0 mg/kg/injection, schedule: Q04DX003 (ip), vehicle: saline with Tween-80) is 90 % of control.
As to `O=C(c1ccccc1)C12CCC(CC1)C2`, the T/C reads like this: under setting [9], 103 % of control; under setting [10], 103 % of control; under setting [11], 110 % of control.
As to `CCn1c2ccccc2c2cc(N=Nc3cc(N)ccc3N(C)C)ccc21`, the T/C reads like this: under setting [1], 87 % of control; under setting [2], 87 % of control; under setting [3], 87 % of control.
With `CCOC(=O)C1=C(C(C)=O)C(c2cccc([N+](=O)[O-])c2)C(C(C)=O)=C(C(=O)OCC)N1`, the T/C is 98 % of control under setting [14], 88 % of control under setting [15] and 95 % of control under setting [16].
For the compound `CCOC(=O)Cn1nc([O-])[n+]2ccccc12`, the T/C runs as follows: under setting [4], 100 % of control; under setting [5], 107 % of control; under setting [6], 98 % of control.
On to `CC(Cl)CNCC(C)(C)C` (stereo not given), for which the T/C runs as follows: (dose: 50.0 mg/kg/injection, schedule: Q01DX005 (ip), vehicle: saline) 100 % of control; (dose: 100.0 mg/kg/injection, schedule: Q01DX005 (ip), vehicle: saline) 99 % of control.
As to `S=C1SCN(c2ccc(Br)cc2)CN1c1ccc2[nH]c(=S)sc2c1`, the T/C by setting is: (dose: 6.25 mg/kg/injection, schedule: Q01DX009 (ip), vehicle: Klucel (hydroxypropylcellulose) (HPC)) 106 % of control; under setting [12], 113 % of control; under setting [13], 106 % of control.
For the compound `CC(=O)OCC1OC(N2C(=O)c3ccccc3S2(=O)=O)C(OC(C)=O)C(OC(C)=O)C1OC(C)=O` (stereo not given), the T/C is, setting by setting: (dose: 100.0 mg/kg/injection, schedule: Q04DX002 (ip), vehicle: saline with Tween-80) 100 % of control; (dose: 200.0 mg/kg/injection, schedule: Q04DX002 (ip), vehicle: saline with Tween-80) 91 % of control; (dose: 400.0 mg/kg/injection, schedule: Q04DX002 (ip), vehicle: saline with Tween-80) 96 % of control.
As for `Cc1noc2c1N=C(c1ccccc1O)CC(c1ccccc1)C2` (stereo not given), the T/C by setting is: under setting [9], 100 % of control; under setting [10], 110 % of control; under setting [11], 99 % of control.
Consider `CCCCN(CCC#N)c1ccc(/C=C/c2ccnc3ccccc23)cc1`, for which the T/C under setting [13] was 96 % of control and the T/C under setting [9] was 96 % of control.
With `COc1cc2c(cc1O)CC1c3c(cc(OC)c(O)c3C2)CCN1C` (stereo not given), the T/C was 100 % of control (dose: 12.5 mg/kg/injection, schedule: Q01DX001 (ip), vehicle: saline with Tween-80); 96 % of control (dose: 25.0 mg/kg/injection, schedule: Q01DX001 (ip), vehicle: saline with Tween-80); 97 % of control (dose: 50.0 mg/kg/injection, schedule: Q01DX001 (ip), vehicle: saline with Tween-80); 95 % of control (dose: 100.0 mg/kg/injection, schedule: Q01DX001 (ip), vehicle: saline with Tween-80).
On to `CCOC(=O)C1c2cccc(O)c2CCN1C(C)=O` (stereo not given), for which the T/C is 100 % of control under setting [14], 100 % of control under setting [15] and 98 % of control under setting [16].
Turning to `CC(=O)N(c1c(N)[nH]c(=O)n(C)c1=O)C1OC(CO)C(O)C(O)C1O` (stereo not given), the T/C by setting is: (dose: 60.0 mg/kg/injection, schedule: Q01DX005 (ip), vehicle: saline) 99 % of control; (dose: 120.0 mg/kg/injection, schedule: Q01DX005 (ip), vehicle: saline) 99 % of control; (dose: 240.0 mg/kg/injection, schedule: Q01DX005 (ip), vehicle: saline) 97 % of control.
